From patent US10202354B2, “Therapeutic compounds and uses thereof” (GENENTECH, INC., priority 2015, dated 2019)

These molecules were tested against Full length KDM2B (Homo sapiens (Human), UniProt Q8NHM5) (assay: KDM2B TR-FRET Assay for Determining Inhibitor IC50). Conditions: TR-FRET (HTRF), biotin-H3K36me2 peptide substrate.
Format: biochemical
Description: KDM2B TR-FRET Assay for Determining Inhibitor IC50
The KDM2B TR-FRET Assay described above represents an additional embodiment of the invention.

Chain of Full length KDM2B (Q8NHM5 whole entry): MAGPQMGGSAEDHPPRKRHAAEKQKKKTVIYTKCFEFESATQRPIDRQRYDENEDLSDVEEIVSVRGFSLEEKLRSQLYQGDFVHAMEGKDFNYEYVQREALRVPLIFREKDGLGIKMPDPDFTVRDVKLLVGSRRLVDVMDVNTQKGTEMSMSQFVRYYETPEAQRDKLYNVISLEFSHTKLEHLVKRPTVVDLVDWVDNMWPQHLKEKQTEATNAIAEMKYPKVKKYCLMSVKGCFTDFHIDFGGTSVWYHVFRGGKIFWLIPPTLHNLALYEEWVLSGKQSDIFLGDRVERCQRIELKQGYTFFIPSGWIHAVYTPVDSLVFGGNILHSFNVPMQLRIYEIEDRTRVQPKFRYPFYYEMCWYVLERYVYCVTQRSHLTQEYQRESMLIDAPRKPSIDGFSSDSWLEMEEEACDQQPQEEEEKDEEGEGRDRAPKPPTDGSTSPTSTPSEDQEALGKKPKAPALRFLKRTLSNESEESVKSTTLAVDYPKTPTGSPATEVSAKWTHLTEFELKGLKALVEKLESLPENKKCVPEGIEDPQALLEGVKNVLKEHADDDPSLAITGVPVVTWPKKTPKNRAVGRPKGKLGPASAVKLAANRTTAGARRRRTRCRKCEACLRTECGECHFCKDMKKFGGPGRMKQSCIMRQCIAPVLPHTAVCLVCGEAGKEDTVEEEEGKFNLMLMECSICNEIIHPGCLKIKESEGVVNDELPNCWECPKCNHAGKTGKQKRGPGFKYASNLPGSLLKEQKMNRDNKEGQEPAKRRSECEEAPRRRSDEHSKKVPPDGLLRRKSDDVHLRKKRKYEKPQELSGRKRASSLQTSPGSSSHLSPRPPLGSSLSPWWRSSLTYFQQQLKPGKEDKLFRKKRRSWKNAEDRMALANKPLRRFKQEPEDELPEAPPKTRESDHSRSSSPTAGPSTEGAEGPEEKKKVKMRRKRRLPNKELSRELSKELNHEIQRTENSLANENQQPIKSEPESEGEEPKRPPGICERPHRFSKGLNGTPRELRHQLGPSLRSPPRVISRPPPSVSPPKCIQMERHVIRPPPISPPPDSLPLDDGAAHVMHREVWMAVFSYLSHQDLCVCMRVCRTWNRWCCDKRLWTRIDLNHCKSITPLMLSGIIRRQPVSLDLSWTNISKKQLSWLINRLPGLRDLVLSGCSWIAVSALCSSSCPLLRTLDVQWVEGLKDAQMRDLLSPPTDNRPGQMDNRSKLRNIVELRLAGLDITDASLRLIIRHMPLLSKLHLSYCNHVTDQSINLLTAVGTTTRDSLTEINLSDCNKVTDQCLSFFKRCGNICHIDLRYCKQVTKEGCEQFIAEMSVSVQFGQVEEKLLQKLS

| IC50 [nM] | SMILES |
| --- | --- |
| 0.021 | O=S(=O)(c1ccc(-c2ccsc2)cc1)N1CCN=C1N1CCN(C2CCC2)CC1 [Example 20, 1-cyclobutyl-4-[1-[4-(3-thienyl)phenyl]sulfonyl-4,5-dihydroimidazol-2-yl]piperazine] |
| 0.114 | CC(C)c1ccc(S(=O)(=O)N2C[C@H](C)N=C2N2CCN(C3CCC3)CC2)cc1 [Example 47, (S)-1-cyclobutyl-4-[1-(4-isopropylphenyl)sulfonyl-4-methyl-4,5-dihydroimidazol-2-yl]piperazine] |
| 0.145 | Cc1ccc(-c2ccc(S(=O)(=O)N3CCN=C3N3CCN(C4CCC4)CC3)cc2)cc1 [Example 10, 1-cyclobutyl-4-[1-[4-(p-tolyl)phenyl]sulfonyl-4,5-dihydroimidazol-2-yl]piperazine] |
| 0.13 | N#Cc1ccc2cc(S(=O)(=O)N3CCN=C3N3CCN(C4CCC4)CC3)ccc2c1 [Example 36, 6-[[2-(4-cyclobutylpiperazin-1-yl)-4,5-dihydroimidazol-1-yl]sulfonyl]naphthalene-2-carbonitrile] |
| 1.02 | CCN1CCN(C2=NCCN2S(=O)(=O)c2ccc(-c3ccc(F)cc3)cc2)CC1 [Example 98, 1-ethyl-4-[1-[4-(4-fluorophenyl)phenyl]sulfonyl-4,5-dihydroimidazol-2-yl]piperazine] |
| 3.76 | CCN1CCN(C2=NCCN2S(=O)(=O)c2ccc(C)cc2)CC1 [Example 117, 1-ethyl-4-[1-(p-tolylsulfonyl)-4,5-dihydroimidazol-2-yl]piperazine] |
| 0.06 | O=S(=O)(c1ccc(-c2cncnc2)cc1)N1CCN=C1N1CCN(C2CCC2)CC1 [Example 30, 5-[4-[[2-(4-cyclobutylpiperazin-1-yl)-4,5-dihydroimidazol-1-yl]sulfonyl]phenyl]pyrimidine] |
| 0.034 | O=S(=O)(c1ccc(-c2cccc(O)c2)cc1)N1CCN=C1N1CCN(C2CCC2)CC1 [Example 16, 3-[4-[[2-(4-cyclobutylpiperazin-1-yl)-4,5-dihydroimidazol-1-yl]sulfonyl]phenyl]phenol] |
| 0.36 | Cn1c(=O)oc2cc(S(=O)(=O)N3CCN=C3N3CCN(C4CCC4)CC3)ccc21 [Example 55, 6-[[2-(4-cyclobutylpiperazin-1-yl)-4,5-dihydroimidazol-1-yl]sulfonyl]-3-methyl-1,3-benzoxazol-2-one] |
| 6.99 | CCN1CCN(C2=NCCN2S(=O)(=O)c2cccc(C(F)(F)F)c2)CC1 [Example 103, 1-ethyl-4-[1-[3-(trifluoromethyl)phenyl]sulfonyl-4,5-dihydroimidazol-2-yl]piperazine] |
| 1.66 | CCN1CCN(C2=NCCN2S(=O)(=O)c2ccc(OC(F)(F)F)cc2)CC1 [Example 102, 1-ethyl-4-[1-[4-(trifluoromethoxy)phenyl]sulfonyl-4,5-dihydroimidazol-2-yl]piperazine] |
| 0.077 | Cc1ccccc1-c1ccc(S(=O)(=O)N2CCN=C2N2CCN(C3CCC3)CC2)cc1 [Example 8, 1-cyclobutyl-4-[1-[4-(o-tolyl)phenyl]sulfonyl-4,5-dihydroimidazol-2-yl]piperazine] |
| 0.053 | N#Cc1ccccc1-c1ccc(S(=O)(=O)N2CCN=C2N2CCN(C3CCC3)CC2)cc1 [Example 1, 2-[4-[[2-(4-cyclobutylpiperazin-1-yl)-4,5-dihydroimidazol-1-yl]sulfonyl]phenyl]benzonitrile] |
| 0.306 | O=S(=O)(c1cc(Cl)cc(Cl)c1)N1CCN=C1N1CCN(C2CCC2)CC1 [Example 62, 1-cyclobutyl-4-[1-(3,5-dichlorophenyl)sulfonyl-4,5-dihydroimidazol-2-yl]piperazine] |
| 0.097 | N#Cc1ccc(-c2ccc(S(=O)(=O)N3CCN=C3N3CCN(C4CCC4)CC3)cc2)cc1 [Example 5, 4-[4-[[2-(4-cyclobutylpiperazin-1-yl)-4,5-dihydroimidazol-1-yl]sulfonyl]phenyl]benzonitrile] |
| 0.016 | O=S(=O)(c1ccc2c(c1)CCCC2)N1CCN=C1N1CCN(C2CCC2)CC1 [Example 32, 1-cyclobutyl-4-(1-tetralin-6-ylsulfonyl-4,5-dihydroimidazol-2-yl)piperazine] |
| 0.054 | CC(C)c1ccc(S(=O)(=O)N2C[C@@H](C)N=C2N2CCN(C3CCC3)CC2)cc1 [Example 46, (R)-1-cyclobutyl-4-[1-(4-isopropylphenyl)sulfonyl-4-methyl-4,5-dihydroimidazol-2-yl]piperazine] |
| 7.76 | CCN1CCN(C2=NCCN2S(=O)(=O)c2cccc(OC(F)F)c2)CC1 [Example 104, 1-[1-[3-(difluoromethoxy)phenyl]sulfonyl-4,5-dihydroimidazol-2-yl]-4-ethyl-piperazine] |
| 0.102 | O=S(=O)(c1ccc(-c2ccccc2C(F)(F)F)cc1)N1CCN=C1N1CCN(C2CCC2)CC1 [Example 4, 1-cyclobutyl-4-[1-[4-[2-(trifluoromethyl)phenyl]phenyl]sulfonyl-4,5-dihydroimidazol-2-yl]piperazine] |

| IC50 [nM] | SMILES |
| --- | --- |
| 6.22 | CCN1CCN(C2=NCCN2S(=O)(=O)c2cccc(OC(F)(F)F)c2)CC1 [Example 99, 1-ethyl-4-[1-[3-(trifluoromethoxy)phenyl]sulfonyl-4,5-dihydroimidazol-2-yl]piperazine] |
| 0.039 | CC(C)c1ccc(S(=O)(=O)N2C[C@@H](C3CC3)N=C2N2CCN(C3CCC3)CC2)cc1 [Example 41, (R)-1-cyclobutyl-4-(4-cyclopropyl-1-((4-isopropylphenyl)sulfonyl)-4,5-dihydro-1H-imidazol-2-yl)piperazine] |
| 3.57 | CCN1CCN(C2=NCCN2S(=O)(=O)c2cc(Cl)ccc2Cl)CC1 [Example 106, 1-[1-(2,5-dichlorophenyl)sulfonyl-4,5-dihydroimidazol-2-yl]-4-ethyl-piperazine] |
| 0.084 | O=S(=O)(c1ccc(-c2ccccc2Cl)cc1)N1CCN=C1N1CCN(C2CCC2)CC1 [Example 21, 1-[1-[4-(2-chlorophenyl)phenyl]sulfonyl-4,5-dihydroimidazol-2-yl]-4-cyclobutyl-piperazine] |
| 8.76 | CCN1CCN(C2=N[C@H](C)CN2S(=O)(=O)c2ccc(C(C)C)cc2)CC1 [Example 43, (R)-1-ethyl-4-[1-(4-isopropylphenyl)sulfonyl-4-methyl-4,5-dihydroimidazol-2-yl]piperazine] |
| 0.151 | O=S(=O)(c1ccc(-c2cccnc2)cc1)N1CCN=C1N1CCN(C2CCC2)CC1 [Example 7, 1-cyclobutyl-4-[1-[4-(3-pyridyl)phenyl]sulfonyl-4,5-dihydroimidazol-2-yl]piperazine] |
| 0.071 | O=S(=O)(c1ccc(-c2ccc(F)cc2)cc1)N1CCN=C1N1CCN(C2CCC2)CC1 [Example 27, 1-cyclobutyl-4-[1-[4-(4-fluorophenyl)phenyl]sulfonyl-4,5-dihydroimidazol-2-yl]piperazine] |
| 3.07 | Cc1ccccc1C(=O)N1CCN=C1N1CCN(C2CCC2)CC1 [Example 83, [2-(4-cyclobutylpiperazin-1-yl)-4,5-dihydroimidazol-1-yl]-(o-tolyl)methanone] |
| 11.4 | CCN1CCN(C2=NCCN2S(=O)(=O)c2cnn(CC)c2C)CC1 [Example 119, 1-ethyl-4-[1-(1-ethyl-5-methyl-pyrazol-4-yl)sulfonyl-4,5-dihydroimidazol-2-yl]piperazine] |
| 0.047 | CC(C)c1ccc(S(=O)(=O)N2C[C@H](C3CC3)N=C2N2CCN(C3CCC3)CC2)cc1 [Example 42, (S)-1-cyclobutyl-4-(4-cyclopropyl-1-((4-isopropylphenyl)sulfonyl)-4,5-dihydro-1H-imidazol-2-yl)piperazine] |
| 2.7 | Cc1ccc(C(=O)N2CCN=C2N2CCN(C3CCC3)CC2)cc1 [Example 84, [2-(4-cyclobutylpiperazin-1-yl)-4,5-dihydroimidazol-1-yl]-(p-tolyl)methanone] |
| 0.049 | Cn1nccc1-c1ccc(S(=O)(=O)N2CCN=C2N2CCN(C3CCC3)CC2)cc1 [Example 29, 1-cyclobutyl-4-[1-[4-(2-methylpyrazol-3-yl)phenyl]sulfonyl-4,5-dihydroimidazol-2-yl]piperazine] |
| 0.087 | O=S(=O)(c1cccc(C2CC2)c1)N1CCN=C1N1CCN(C2CCC2)CC1 [Example 35, 1-cyclobutyl-4-[1-(3-cyclopropylphenyl)sulfonyl-4,5-dihydroimidazol-2-yl]piperazine] |
| 9.81 | CCN1CCN(C2=NCCN2S(=O)(=O)c2ccccc2C#N)CC1 [Example 112, 2-[[2-(4-ethylpiperazin-1-yl)-4,5-dihydroimidazol-1-yl]sulfonyl]benzonitrile] |
| 0.492 | CC(C)c1ccc(S(=O)(=O)N2CCN=C2N2CCN(CC3CC3C)CC2)cc1 (stereo not drawn) [Example 38, 1-[1-(4-isopropylphenyl)sulfonyl-4,5-dihydroimidazol-2-yl]-4-[(2-methylcyclopropyl)methyl]piperazine] |
| 0.86 | CC1CC(N2CCN(C3=NCCN3S(=O)(=O)c3ccc(C(C)C)cc3)CC2)C1 (stereo not drawn) [Example 39, 1-[1-(4-isopropylphenyl)sulfonyl-4,5-dihydroimidazol-2-yl]-4-(3-methylcyclobutyl)piperazine] |
| 0.5 | O=S(=O)(c1cccc2nonc12)N1CCN=C1N1CCN(C2CCC2)CC1 [Example 64, 4-[[2-(4-cyclobutylpiperazin-1-yl)-4,5-dihydroimidazol-1-yl]sulfonyl]-2,1,3-benzoxadiazole] |
| 0.046 | O=S(=O)(c1ccc(-c2ccccc2F)cc1)N1CCN=C1N1CCN(C2CCC2)CC1 [Example 25, 1-cyclobutyl-4-[1-[4-(2-fluorophenyl)phenyl]sulfonyl-4,5-dihydroimidazol-2-yl]piperazine] |
| 6.33 | CCN1CCN(C2=NCCN2S(=O)(=O)c2ccc(F)cc2F)CC1 [Example 109, 1-[1-(2,4-difluorophenyl)sulfonyl-4,5-dihydroimidazol-2-yl]-4-ethyl-piperazine] |

| SMILES | IC50 [nM] |
| --- | --- |
| CC(C)c1ccc(S(=O)(=O)N2CCN=C2N2C3CCC2CN(C2CCC2)C3)cc1 [Example 48, 3-cyclobutyl-8-[1-(4-isopropylphenyl)sulfonyl-4,5-dihydroimidazol-2-yl]-3,8-diazabicyclo[3.2.1]octane] | 1.19 |
